Measured values reported in patent publication US11072633B2 (priority 2016, dated 2021).
Read-outs that look alike come from different tables or passages of the source.

Legend:
[1] = tested on: M. tuberculosis constitutively expressing the luxABCDE operon; experiment: microbe, parasite or virus in culture; type: cell-based
[2] = Metabolic stability in human liver microsomes; settings: both, pH 7.4
in vivo [3] = settings: male, CD-1, mouse
[4] = both, human, microsomes, 2 μM, pH 7.4
in vitro [5] = type: cell-based; settings: human
Method: (§1) The cytotoxicity of SB107 was determined by measuring […], THP-1, HepG2, and HK-2 cell viability after 3 days in the presence of SB107 in a 384-well plate format. SB107 was prepared as 10-point serial dilutions in DMSO, with the highest concentration at 30 μM. Assay plates were incubated for 3 days at 37° C., 5% CO2 and relative luminescent units (RLU) were measured using the CellTiter-Glo® Luminescent Cell Viability Assay. The dose response curve was fitted using the Levenberg-Marquardt algorithm.

CYP2C9 = biological target: T1, CYP2C9 (Homo sapiens, UniProt P11712); experiment: in vitro; type: in vitro ADME; settings: both sexes, microsomes, read-out: % Inhibition 2C9
T1 construct: using pooled male and female human liver microsomes; from tissue; host or cells: pooled human liver microsomes
T1 sequence (P11712 whole entry): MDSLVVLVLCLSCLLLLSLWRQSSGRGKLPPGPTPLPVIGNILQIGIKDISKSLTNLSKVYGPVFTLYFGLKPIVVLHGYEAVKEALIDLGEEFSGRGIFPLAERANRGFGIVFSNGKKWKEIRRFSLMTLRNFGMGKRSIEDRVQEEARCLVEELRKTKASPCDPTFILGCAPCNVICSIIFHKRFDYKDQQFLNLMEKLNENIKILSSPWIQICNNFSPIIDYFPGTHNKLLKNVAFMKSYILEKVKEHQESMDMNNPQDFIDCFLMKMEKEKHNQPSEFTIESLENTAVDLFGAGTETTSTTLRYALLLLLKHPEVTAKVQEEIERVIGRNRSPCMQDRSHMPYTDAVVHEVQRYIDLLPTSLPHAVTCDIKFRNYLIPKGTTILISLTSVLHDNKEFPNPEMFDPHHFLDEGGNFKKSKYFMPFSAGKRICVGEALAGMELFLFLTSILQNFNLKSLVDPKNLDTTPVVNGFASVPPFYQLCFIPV
Method: (§2) The potential for inhibtion of CYP enzymes (CYP1A2, CYP2A6, CYP2B6, CYP2C8, CYP2C9, CYP2C19, CYP2D6, CYP2E1 and CYP3A4) by 107 at 10 μM were using pooled male and female human liver microsomes, Freshly plated human microsomes with substrate to each CYP enzyme was treated with 107 for 5-20 min. The concentrations of marker metabolites of known substrates were determined by LCMS analysis.
(§3) The inhibition of CYP enzymes by 107 was evaluated in human liver microsomes (Table 11).

CYP2C19 = biological target: T2, CYP2C19 (Homo sapiens, UniProt P33261); experiment: in vitro; type: in vitro ADME; settings: both sexes, microsomes, read-out: % Inhibition 2C19
T2 construct: using pooled male and female human liver microsomes; from tissue; host or cells: pooled human liver microsomes
T2 sequence (P33261 whole entry): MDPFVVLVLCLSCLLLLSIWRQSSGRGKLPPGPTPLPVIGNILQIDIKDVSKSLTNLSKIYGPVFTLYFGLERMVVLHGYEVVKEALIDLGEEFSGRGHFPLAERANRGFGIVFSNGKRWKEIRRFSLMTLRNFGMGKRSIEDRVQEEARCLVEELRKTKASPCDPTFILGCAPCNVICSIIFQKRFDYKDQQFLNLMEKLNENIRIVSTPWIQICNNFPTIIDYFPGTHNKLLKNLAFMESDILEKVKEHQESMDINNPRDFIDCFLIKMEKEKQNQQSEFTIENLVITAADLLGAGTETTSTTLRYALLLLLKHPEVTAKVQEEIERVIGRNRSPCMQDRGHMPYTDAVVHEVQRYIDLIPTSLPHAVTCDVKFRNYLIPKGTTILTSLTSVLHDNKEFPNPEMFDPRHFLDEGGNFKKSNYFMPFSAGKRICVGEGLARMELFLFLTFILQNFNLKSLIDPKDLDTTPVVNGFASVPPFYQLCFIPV
Method: as §2, §3

CYP2C8 = biological target: T3, CYP2C8 (Homo sapiens, UniProt P10632); experiment: in vitro; type: in vitro ADME; settings: both sexes, microsomes, read-out: % Inhibition 2C8
T3 construct: using pooled male and female human liver microsomes; from tissue; host or cells: pooled human liver microsomes
T3 sequence (P10632 whole entry): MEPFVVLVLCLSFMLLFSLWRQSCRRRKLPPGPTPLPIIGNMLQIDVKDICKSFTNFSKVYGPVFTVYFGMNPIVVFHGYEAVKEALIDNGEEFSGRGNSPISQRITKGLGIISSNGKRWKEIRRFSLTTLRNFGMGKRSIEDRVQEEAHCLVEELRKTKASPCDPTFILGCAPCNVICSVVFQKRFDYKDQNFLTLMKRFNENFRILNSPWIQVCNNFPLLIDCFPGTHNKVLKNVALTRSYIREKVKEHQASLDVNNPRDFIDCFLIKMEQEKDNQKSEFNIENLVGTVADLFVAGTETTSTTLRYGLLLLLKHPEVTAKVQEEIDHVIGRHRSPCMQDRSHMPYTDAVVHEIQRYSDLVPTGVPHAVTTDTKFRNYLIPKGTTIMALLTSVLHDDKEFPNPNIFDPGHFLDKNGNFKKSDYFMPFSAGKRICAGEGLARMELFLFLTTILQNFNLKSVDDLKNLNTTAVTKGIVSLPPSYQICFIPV
Method: as §2, §3

CYP2D6 = biological target: T4, CYP2D6 (Homo sapiens, UniProt P10635); experiment: in vitro; type: in vitro ADME; settings: both sexes, microsomes, read-out: % Inhibition 2D6
T4 construct: using pooled male and female human liver microsomes; from tissue; host or cells: pooled human liver microsomes
Method: as §2, §3

CYP1A2 = biological target: T5, CYP1A2 (Homo sapiens, UniProt P05177); experiment: in vitro; type: in vitro ADME; settings: both sexes, microsomes, read-out: % Inhibition 1A2
T5 construct: using pooled male and female human liver microsomes; from tissue; host or cells: pooled human liver microsomes
T5 sequence (P05177 whole entry): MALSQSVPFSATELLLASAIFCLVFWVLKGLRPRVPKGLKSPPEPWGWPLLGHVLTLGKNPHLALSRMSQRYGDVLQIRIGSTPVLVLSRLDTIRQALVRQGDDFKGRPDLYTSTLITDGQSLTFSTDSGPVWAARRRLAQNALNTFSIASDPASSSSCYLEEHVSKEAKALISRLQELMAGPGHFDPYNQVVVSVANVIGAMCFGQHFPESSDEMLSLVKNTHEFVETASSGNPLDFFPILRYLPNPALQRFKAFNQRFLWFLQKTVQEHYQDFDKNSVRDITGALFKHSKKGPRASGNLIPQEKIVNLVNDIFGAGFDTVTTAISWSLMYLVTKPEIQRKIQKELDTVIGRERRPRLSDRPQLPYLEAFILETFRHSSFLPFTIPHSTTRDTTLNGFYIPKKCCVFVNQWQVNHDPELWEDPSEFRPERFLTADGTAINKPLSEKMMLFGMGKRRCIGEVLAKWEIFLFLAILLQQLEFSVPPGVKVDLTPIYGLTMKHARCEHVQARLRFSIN
Method: as §2, §3

CYP2E1 = biological target: T6, CYP2E1 (Homo sapiens, UniProt P05181); experiment: in vitro; type: in vitro ADME; settings: both sexes, microsomes, read-out: % Inhibition 2E1
T6 construct: using pooled male and female human liver microsomes; from tissue; host or cells: pooled human liver microsomes
Method: as §2, §3

CYP2A6 = biological target: T7, CYP2A6 (Homo sapiens, UniProt P11509); experiment: in vitro; type: in vitro ADME; settings: both sexes, microsomes, read-out: % Inhibition 2A6
T7 construct: using pooled male and female human liver microsomes; from tissue; host or cells: pooled human liver microsomes
T7 sequence (P11509 whole entry): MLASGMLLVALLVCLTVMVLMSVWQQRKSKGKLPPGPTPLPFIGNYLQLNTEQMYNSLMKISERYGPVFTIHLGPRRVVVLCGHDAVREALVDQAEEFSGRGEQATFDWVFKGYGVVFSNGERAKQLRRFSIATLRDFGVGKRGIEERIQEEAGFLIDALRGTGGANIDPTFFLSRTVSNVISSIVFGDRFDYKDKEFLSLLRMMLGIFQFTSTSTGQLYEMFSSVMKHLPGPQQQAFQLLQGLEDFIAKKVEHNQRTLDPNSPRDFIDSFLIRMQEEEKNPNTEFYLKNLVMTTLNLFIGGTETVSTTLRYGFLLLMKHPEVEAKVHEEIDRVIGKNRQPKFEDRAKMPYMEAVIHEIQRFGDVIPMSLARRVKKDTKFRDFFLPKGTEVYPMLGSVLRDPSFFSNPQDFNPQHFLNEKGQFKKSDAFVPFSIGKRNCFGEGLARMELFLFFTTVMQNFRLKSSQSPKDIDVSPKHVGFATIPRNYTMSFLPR
Method: as §2, §3

CYP2B6 = biological target: T8, CYP2B6 (Homo sapiens, UniProt P20813); experiment: in vitro; type: in vitro ADME; settings: both sexes, microsomes, read-out: % Inhibition 2B6
T8 construct: using pooled male and female human liver microsomes; from tissue; host or cells: pooled human liver microsomes
T8 sequence (P20813 whole entry): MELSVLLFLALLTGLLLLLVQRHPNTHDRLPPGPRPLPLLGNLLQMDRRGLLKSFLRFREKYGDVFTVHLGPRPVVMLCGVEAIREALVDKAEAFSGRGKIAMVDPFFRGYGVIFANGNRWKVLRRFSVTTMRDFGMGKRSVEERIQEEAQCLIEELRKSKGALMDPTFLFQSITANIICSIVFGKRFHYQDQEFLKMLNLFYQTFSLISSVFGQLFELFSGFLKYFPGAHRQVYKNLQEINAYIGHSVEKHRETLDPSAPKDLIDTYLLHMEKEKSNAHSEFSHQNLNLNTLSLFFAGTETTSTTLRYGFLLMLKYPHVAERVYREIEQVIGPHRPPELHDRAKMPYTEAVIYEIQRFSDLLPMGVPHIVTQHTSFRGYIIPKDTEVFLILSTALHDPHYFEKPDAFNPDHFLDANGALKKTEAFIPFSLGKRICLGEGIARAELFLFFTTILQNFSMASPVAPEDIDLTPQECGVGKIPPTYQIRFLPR
Method: as §2, §3

[6] = Pharmacokinetics and bioavailability in plasma; settings: male, CD-1, mouse
in vivo [7] = settings: male, CD-1, mouse; remark: listed apart in the source
Mtb = experiment: Isoniazid MIC shift on Mtb MIC plates (broth microdilution MIC); type: cell-based, M. tuberculosis
in vitro [8] = type: cell-based; settings: human; remark: listed apart in the source
Method: as §1

CYP3A4 = biological target: T9, CYP3A4 (Homo sapiens, UniProt P08684); experiment: Inhibition of CYPs in human liver microsomes, CYP3A4; type: in vitro ADME; settings: for inhibition at 10 µM: both sexes, human, microsomes
T9 construct: using pooled male and female human liver microsomes; from tissue; host or cells: pooled human liver microsomes
T9 sequence (P08684 whole entry): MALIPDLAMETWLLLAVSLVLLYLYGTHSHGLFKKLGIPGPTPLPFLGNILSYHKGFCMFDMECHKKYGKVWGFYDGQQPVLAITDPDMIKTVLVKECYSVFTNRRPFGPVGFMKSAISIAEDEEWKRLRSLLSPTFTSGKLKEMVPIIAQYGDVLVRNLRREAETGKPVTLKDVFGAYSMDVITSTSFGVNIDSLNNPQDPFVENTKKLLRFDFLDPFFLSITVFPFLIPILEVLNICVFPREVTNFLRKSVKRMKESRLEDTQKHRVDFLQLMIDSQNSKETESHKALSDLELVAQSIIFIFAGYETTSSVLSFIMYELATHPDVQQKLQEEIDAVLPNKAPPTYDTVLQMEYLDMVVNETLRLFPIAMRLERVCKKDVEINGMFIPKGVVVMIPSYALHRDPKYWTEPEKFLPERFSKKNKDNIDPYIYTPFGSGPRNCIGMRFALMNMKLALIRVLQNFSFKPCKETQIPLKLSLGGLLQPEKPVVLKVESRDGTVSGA
Method: as §2, §3

M. tuberculosis = experiment: Minimum Bactericidal Concentration (MBC); type: cell-based; settings: Mycobacterium tuberculosis; INH with 60 μM 107; read-out: MBC of INH
in vitro [9] = type: in vitro ADME; settings: human
Method: (§4) Caco-2 cells were diluted to 6.86×10^6 cells/mL, dispensed into a 96-well HTS Transwell plate, and cultured for 14 to 18 days. 6-azasteroids at 5 μM was incubated at 37° C. for 2 hours with the Caco-2 cell monolayer in HBSS buffer (10 mM HEPES, pH 7.4) containing 5% BSA. Aliquots from donor sides (apical compartment for Ap→Bl flux, and basolateral compartment for Bl→Ap) and receiver sides (basolateral compartment for Ap→Bl flux, and apical compartment for Bl→Ap) were separated and extracted by acetonitrile or methanol containing appropriate internal standards (IS). The concentration of 6-azasteroid was determined by LC-MS/MS analysis.
(§5) Elution rate: 0.65 mL/min.
(§6) To predict absorption via oral administration, Caco-2 bidirectional permeability assay was performed (Table 8).

Caco-2 cell line = experiment: in vitro; type: in vitro ADME; settings: human, Caco-2, 2 h, 5 μM, pH 7.4
Method: as §4, §5, §6

in vitro [10] = type: cell-based; settings: human; remark: listed apart in the source
Method: as §1

in vitro [11] = settings: both, human, microsomes, pH 7.4
in vitro [12] = type: cell-based; settings: human; remark: listed apart in the source
Method: as §1

hERG = biological target: T10, hERG (Homo sapiens, UniProt Q12809); experiment: hERG assay (hERG currents in HEK 293 cells); type: cell-based
T10 construct: expressed in transfected cells
T10 sequence (Q12809 whole entry): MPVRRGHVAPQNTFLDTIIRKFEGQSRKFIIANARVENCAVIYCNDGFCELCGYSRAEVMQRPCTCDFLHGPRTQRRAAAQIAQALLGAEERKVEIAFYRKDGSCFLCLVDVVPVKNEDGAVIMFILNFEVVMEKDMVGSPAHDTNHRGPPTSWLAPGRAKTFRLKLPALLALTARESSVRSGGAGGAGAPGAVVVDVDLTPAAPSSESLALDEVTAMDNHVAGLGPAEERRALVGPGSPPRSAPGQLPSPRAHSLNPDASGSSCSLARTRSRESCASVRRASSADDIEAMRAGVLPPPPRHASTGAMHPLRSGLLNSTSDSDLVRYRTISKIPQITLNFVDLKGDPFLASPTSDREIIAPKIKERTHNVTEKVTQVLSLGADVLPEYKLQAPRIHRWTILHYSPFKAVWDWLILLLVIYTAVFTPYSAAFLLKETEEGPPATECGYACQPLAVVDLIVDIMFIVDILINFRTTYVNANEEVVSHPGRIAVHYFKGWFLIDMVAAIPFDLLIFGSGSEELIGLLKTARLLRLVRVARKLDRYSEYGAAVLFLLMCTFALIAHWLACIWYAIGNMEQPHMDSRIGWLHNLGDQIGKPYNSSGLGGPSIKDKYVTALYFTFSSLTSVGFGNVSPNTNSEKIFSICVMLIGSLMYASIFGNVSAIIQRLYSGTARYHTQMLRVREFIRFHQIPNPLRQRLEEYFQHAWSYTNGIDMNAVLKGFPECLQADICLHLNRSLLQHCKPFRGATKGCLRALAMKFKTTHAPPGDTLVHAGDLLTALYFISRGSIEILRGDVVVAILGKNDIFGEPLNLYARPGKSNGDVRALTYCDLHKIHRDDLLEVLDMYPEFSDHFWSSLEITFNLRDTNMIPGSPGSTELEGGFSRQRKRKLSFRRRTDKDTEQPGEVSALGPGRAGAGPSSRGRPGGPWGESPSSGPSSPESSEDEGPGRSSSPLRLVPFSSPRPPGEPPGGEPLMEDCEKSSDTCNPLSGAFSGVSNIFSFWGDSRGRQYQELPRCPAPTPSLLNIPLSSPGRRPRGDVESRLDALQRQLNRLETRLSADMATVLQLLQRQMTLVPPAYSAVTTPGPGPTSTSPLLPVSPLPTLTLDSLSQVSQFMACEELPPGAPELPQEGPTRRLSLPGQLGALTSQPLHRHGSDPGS
Method: hERG stably expressed HEK 293 cells were seeded at 5×10^5 cells/per 6 cm cell culture dish and induced with doxycycline at 1 μg/mL for 48 hours. Compound at the final concentrations of 30, 10, 3.33, 1.11 and 0.37 μM was applied to the cells accumulatively, post-compound hERG currents were recorded, and IC50 was calculated. Dofetilide was used as a positive control.
To predict the potential cardiotoxic effects of 6-azastroids, human ether-a-go-go related gene (hERG) assay was applied to 100, 107 and 114 (Table 9). Cytotoxicity of 107 was also assessed (Table 10).

COc1nc(OC(F)(F)F)c(NC(=O)C2CCC3C4CN(C(=O)OC(C)(C)C)C5=CC(=O)CC[C@]5(C)C4CC[C@]23C)cc1Br (stereo partly drawn) [Compound 107]
MIC ([1]; Mycobacterium tuberculosis, INH with 15 μM 6-azasteroid, read-out: LORA MIC of INH): 0.75 µM
activity under low oxygen conditions ([1]; in combination with isoniazid): active
half-life at 2 μM [2]: 1.54 h
half-life (in vivo [3]): ~7 h
Tmax (in vivo [3]; po, 5 mg/kg): 1 h
Remaining Percentage with NADPH, 0 min ([4]; 0 h): 100.00%
Remaining Percentage with NADPH, 15 min ([4]; 0.25 h): 93.28%
Remaining Percentage with NADPH, 30 min ([4]; 0.5 h): 79.18%
Remaining Percentage with NADPH, 45 min ([4]; 0.75 h): 71.86%
Remaining Percentage with NADPH, 60 min ([4]; 1 h): 65.13%
IC50 at 3 days (in vitro [5]): > 30 µM
inhibition at 10 µM (CYP2C9): 33.1%
inhibition at 10 µM (CYP2C19): 65.3%
inhibition at 10 µM (CYP2C8): 39.7%
inhibition at 10 µM (CYP2D6): 4.4%
inhibition at 10 µM (CYP1A2): 0%
inhibition at 10 µM (CYP2E1): 0%
inhibition at 10 µM (CYP2A6): 16.5%
inhibition at 10 µM (CYP2B6): 0%
t1/2 Lung PO (Lung tissue distribution; PO 5 mg/kg, lung, 5 mg/kg): 5.82 h
half-life (Lung tissue distribution; male, CD-1, mouse, lung, iv, 1 mg/kg, t1/2 Lung IV, IV 1 mg/kg): 6.88 h
half-life (Lung tissue distribution; male, CD-1, mouse, lung, po, 5 mg/kg, t1/2 Lung PO, PO 5 mg/kg): 5.8 h
Kp (Lung tissue distribution; male, CD-1, mouse, lung/plasma, po, 5 mg/kg): 1.74
half-life ([6]; iv, 1 mg/kg): 6.75 h
half-life ([6]; po, 5 mg/kg): 4.98 h
Tmax (in vivo [7]; iv, 1 mg/kg): 0.0833 h
Tmax (in vivo [7]; po, 5 mg/kg): 1 h
Isoniazid MIC shift (Mtb): ++ (4-8-fold ++)
IC50 at 3 days (in vitro [8]): > 30 µM
inhibition at 10 µM (CYP3A4; 107 at 10 μM, either midazolam or testosterone as substrate, read-out: inhibition of CYP 3A4): 30%
inhibition at 10 µM (CYP3A4; at 10 μM, midazolam as substrate, read-out: % Inhibition 3A4 (midazolam)): 30.4%
inhibition at 10 µM (CYP3A4; at 10 μM, testosterone as substrate, read-out: % Inhibition 3A4 (testosterone)): 30.5%
IC50 (CYP3A4; both substrates (midazolam, testosterone), tested 10 nM to 50 μM, read-out: CYP 3A4 IC50): > 50 µM
MBC (M. tuberculosis): 3 µM
efflux ratio at 2 h, 5 μM (in vitro [9]; Caco-2, pH 7.4, Efflux Ratio): > 1.06
recovery at 2 h, 5 μM (in vitro [9]; Caco-2, pH 7.4, Recovery (%) BL-AP): 63.4%
Efflux Ratio (Caco-2 cell line): 0.71
Recovery (%) BL-AP (Caco-2 cell line): 58.07%
IC50 at 3 days (in vitro [10]): > 30 µM
CLint scaled at 2 μM (in vitro [11]): 18.8 mL/min/kg
microsomal CLint at 2 μM (in vitro [11]): 15 µL/min/mg
IC50 at 3 days (in vitro [12]): > 30 µM
hERG inhibition (hERG; at 30 μM): No hERG inhibition was observed
IC50 (hERG; hERG stably expressed HEK 293 cells): > 30 µM
inhibition at 30 mM (hERG; human, HEK 293 cells stably expressing hERG, at 30 mM): 34.1%
